Results as given in ChEMBL document CHEMBL4392844 (Bioorg Med Chem, 2019).
Active and inactive are the calls of the source. No cut-off for these calls is given here.

How the values were obtained:
A549 = experiment: Cytotoxicity against human A549 cells assessed as reduction in cell proliferation measured after 72 hrs by MTT assay; type: functional, cell-based; conditions: A549, 72 h
HT-29 [1] = experiment: Cytotoxicity against human HT-29 cells assessed as reduction in cell proliferation measured after 72 hrs by MTT assay; type: functional, cell-based; conditions: HT-29, 72 h
HT-29 [2] = experiment: Antiproliferative activity against human HT-29 cells assessed as reduction in cell proliferation by phase contrast microscopy; type: functional, cell-based
HT-29 [3] = experiment: Antiproliferative activity against human HT-29 cells assessed as increase in dead cell population by IncuCyte live-cell imaging analysis; type: functional, cell-based
HT-29 [4] = experiment: Antiproliferative activity against human HT-29 cells assessed as increase in dead cell population at 10 ug/ml measured after 14 hrs by IncuCyte live-cell imaging analysis; type: functional, cell-based
HT-29 [5] = experiment: Induction of apoptosis in human HT-29 cells assessed as early apoptotic cells at 3 ug/ml measured after 24 hrs by Annexin V-FITC/propidium iodide staining based FACS analysis (reference value: 4.9%); type: functional
HT-29 [6] = experiment: Induction of apoptosis in human HT-29 cells assessed as early apoptotic cells at 1 ug/ml measured after 24 hrs by Annexin V-FITC/propidium iodide staining based FACS analysis (reference value: 4.9%); type: functional
[7] = target: Vascular endothelial growth factor receptor 2 (Homo sapiens, UniProt P35968); experiment: Inhibition of VEGFR2 (unknown origin) using FAM-labelled peptide as substrate measured after 10 mins by mobility shift assay
HT-29 [8] = experiment: Antiproliferative activity against human HT-29 cells assessed as increase in dead cell population at 1.11 ug/ml measured after 66 hrs by IncuCyte live-cell imaging analysis; type: functional, cell-based
HT-29 [9] = experiment: Antiproliferative activity against human HT-29 cells assessed as reduction in cell proliferation at 10 ug/ml after 72 hrs by phase contrast microscopy; type: functional, cell-based
[10] = target: Mast/stem cell growth factor receptor Kit (Homo sapiens, UniProt P10721); experiment: Inhibition of c-KIT (unknown origin) using FAM-labelled peptide as substrate measured after 10 mins by mobility shift assay
[11] = target: Insulin-like growth factor 1 receptor (Homo sapiens, UniProt P08069); experiment: Inhibition of IGF1R (unknown origin) using FAM-labelled peptide as substrate measured after 10 mins by mobility shift assay
HT-29 [12] = experiment: Induction of apoptosis in human HT-29 cells assessed as early apoptotic cells at 0.3 ug/ml measured after 24 hrs by Annexin V-FITC/propidium iodide staining based FACS analysis (reference value: 4.9%); type: functional
HT-29 [13] = experiment: Antimigratory activity against human HT-29 cells assessed as reduction in cell migration at 3.33 ug/ml measured every hour for 48 hrs by IncuCyte real-time cell imaging analysis; type: functional, cell-based
HT-29 [14] = experiment: Ratio of test compound effect to cabozantinib effect for antiproliferative activity against human HT-29 cells assessed as increase in dead cell population measured after 14 hrs by IncuCyte live-cell imaging analysis; type: functional
[15] = target: Proto-oncogene tyrosine-protein kinase Src (Homo sapiens, UniProt P12931); experiment: Inhibition of c-SRC (unknown origin) using FAM-labelled peptide as substrate measured after 10 mins by mobility shift assay
HT-29 [16] = experiment: Induction of apoptosis in human HT-29 cells measured after 72 hrs by Annexin V-FITC/propidium iodide staining based FACS analysis; type: functional, cell-based
HT-29 [17] = experiment: Induction of apoptosis in human HT-29 cells assessed as early apoptotic cells at 5 ug/ml measured after 24 hrs by Annexin V-FITC/propidium iodide staining based FACS analysis (reference value: 4.9%); type: functional
[18] = target: T1, Receptor-type tyrosine-protein kinase FLT3 (Homo sapiens, UniProt P36888); experiment: Inhibition of FLT3 (unknown origin) using FAM-labelled peptide as substrate measured after 10 mins by mobility shift assay
T1 sequence (P36888 whole entry): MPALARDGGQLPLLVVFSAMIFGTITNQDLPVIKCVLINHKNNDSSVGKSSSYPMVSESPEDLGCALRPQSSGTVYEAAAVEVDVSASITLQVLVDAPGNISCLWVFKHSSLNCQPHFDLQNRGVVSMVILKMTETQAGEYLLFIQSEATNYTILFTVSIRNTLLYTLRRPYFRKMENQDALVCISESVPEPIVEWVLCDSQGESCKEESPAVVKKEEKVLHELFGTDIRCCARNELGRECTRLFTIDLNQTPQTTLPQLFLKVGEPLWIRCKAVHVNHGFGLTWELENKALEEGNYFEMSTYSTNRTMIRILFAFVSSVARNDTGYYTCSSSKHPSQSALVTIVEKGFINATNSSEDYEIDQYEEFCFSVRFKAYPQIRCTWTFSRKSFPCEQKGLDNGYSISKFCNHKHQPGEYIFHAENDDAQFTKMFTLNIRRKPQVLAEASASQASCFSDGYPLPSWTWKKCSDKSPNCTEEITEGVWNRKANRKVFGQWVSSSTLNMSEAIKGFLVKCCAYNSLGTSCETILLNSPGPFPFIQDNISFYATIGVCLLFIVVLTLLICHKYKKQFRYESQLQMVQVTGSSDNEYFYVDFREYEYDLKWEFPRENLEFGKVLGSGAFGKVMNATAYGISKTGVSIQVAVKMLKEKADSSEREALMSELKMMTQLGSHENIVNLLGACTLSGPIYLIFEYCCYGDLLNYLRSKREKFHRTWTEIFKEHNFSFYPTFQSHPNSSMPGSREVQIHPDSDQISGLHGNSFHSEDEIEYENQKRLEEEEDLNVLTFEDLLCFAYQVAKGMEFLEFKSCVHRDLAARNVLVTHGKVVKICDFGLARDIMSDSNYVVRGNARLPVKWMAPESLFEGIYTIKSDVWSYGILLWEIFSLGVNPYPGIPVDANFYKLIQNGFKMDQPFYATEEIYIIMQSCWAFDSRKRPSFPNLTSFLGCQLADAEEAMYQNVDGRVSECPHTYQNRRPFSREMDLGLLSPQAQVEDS

[19] = target: Epidermal growth factor receptor (Homo sapiens, UniProt P00533); experiment: Inhibition of EGFR (unknown origin) using FAM-labelled peptide as substrate measured after 10 mins by mobility shift assay
HT-29 [20] = experiment: Antimigratory activity against human HT-29 cells assessed as reduction in cell migration at 3.33 ug/ml measured every hour for 72 hrs by IncuCyte real-time cell imaging analysis; type: functional, cell-based
HT-29 [21] = experiment: Antiproliferative activity against human HT-29 cells assessed as reduction in cell proliferation by IncuCyte live-cell imaging analysis; type: functional, cell-based
HT-29 [22] = experiment: Antiproliferative activity against human HT-29 cells assessed as reduction in cell proliferation at 0.37 ug/ml after 72 hrs by phase contrast microscopy; type: functional, cell-based
HT-29 [23] = experiment: Antiproliferative activity against human HT-29 cells assessed as increase in dead cell population at 10 ug/ml measured after 66 hrs by IncuCyte live-cell imaging analysis; type: functional, cell-based

Sequence of Mast/stem cell growth factor receptor Kit (P10721 whole entry): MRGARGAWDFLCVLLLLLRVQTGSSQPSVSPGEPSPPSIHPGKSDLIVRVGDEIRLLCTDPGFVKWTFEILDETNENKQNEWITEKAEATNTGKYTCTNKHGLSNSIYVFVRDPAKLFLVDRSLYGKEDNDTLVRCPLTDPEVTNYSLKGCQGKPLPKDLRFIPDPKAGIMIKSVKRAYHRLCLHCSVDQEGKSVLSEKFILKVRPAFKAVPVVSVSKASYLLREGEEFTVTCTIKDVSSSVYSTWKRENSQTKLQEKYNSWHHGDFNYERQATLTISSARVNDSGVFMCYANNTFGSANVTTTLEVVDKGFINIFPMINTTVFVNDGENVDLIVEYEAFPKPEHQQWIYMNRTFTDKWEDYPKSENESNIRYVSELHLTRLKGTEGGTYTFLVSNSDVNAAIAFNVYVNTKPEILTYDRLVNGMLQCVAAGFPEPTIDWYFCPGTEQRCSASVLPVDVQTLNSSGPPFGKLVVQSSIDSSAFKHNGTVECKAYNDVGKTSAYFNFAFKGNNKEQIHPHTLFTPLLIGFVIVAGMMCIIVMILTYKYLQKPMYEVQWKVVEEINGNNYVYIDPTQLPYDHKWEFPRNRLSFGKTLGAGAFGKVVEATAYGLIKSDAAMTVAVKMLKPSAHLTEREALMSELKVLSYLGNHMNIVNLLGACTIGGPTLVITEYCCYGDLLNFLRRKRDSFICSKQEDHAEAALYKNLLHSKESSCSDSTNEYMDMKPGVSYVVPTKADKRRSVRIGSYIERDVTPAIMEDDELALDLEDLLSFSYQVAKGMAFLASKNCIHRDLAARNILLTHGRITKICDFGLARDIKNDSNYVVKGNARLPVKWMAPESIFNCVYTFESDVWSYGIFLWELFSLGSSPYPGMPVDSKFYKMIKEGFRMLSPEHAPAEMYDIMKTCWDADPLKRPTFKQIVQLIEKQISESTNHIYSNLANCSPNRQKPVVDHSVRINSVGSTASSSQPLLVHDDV
Sequence of Proto-oncogene tyrosine-protein kinase Src (P12931 2-536 limits assumed): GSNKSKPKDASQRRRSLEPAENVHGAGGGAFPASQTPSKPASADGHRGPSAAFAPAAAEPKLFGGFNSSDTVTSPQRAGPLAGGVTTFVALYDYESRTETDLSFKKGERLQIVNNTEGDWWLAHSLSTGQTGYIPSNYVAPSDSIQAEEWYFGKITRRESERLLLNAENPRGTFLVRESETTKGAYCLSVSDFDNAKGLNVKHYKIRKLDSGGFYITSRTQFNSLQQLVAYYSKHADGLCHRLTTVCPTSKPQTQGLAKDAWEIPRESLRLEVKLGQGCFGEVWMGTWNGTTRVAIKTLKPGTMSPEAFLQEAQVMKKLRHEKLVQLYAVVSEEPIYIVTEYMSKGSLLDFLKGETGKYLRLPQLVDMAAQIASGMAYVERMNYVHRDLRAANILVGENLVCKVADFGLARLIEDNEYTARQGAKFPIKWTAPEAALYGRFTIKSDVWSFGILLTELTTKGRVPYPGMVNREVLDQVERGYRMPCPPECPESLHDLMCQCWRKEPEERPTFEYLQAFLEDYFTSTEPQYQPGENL
Sequence of Vascular endothelial growth factor receptor 2 (P35968 whole entry): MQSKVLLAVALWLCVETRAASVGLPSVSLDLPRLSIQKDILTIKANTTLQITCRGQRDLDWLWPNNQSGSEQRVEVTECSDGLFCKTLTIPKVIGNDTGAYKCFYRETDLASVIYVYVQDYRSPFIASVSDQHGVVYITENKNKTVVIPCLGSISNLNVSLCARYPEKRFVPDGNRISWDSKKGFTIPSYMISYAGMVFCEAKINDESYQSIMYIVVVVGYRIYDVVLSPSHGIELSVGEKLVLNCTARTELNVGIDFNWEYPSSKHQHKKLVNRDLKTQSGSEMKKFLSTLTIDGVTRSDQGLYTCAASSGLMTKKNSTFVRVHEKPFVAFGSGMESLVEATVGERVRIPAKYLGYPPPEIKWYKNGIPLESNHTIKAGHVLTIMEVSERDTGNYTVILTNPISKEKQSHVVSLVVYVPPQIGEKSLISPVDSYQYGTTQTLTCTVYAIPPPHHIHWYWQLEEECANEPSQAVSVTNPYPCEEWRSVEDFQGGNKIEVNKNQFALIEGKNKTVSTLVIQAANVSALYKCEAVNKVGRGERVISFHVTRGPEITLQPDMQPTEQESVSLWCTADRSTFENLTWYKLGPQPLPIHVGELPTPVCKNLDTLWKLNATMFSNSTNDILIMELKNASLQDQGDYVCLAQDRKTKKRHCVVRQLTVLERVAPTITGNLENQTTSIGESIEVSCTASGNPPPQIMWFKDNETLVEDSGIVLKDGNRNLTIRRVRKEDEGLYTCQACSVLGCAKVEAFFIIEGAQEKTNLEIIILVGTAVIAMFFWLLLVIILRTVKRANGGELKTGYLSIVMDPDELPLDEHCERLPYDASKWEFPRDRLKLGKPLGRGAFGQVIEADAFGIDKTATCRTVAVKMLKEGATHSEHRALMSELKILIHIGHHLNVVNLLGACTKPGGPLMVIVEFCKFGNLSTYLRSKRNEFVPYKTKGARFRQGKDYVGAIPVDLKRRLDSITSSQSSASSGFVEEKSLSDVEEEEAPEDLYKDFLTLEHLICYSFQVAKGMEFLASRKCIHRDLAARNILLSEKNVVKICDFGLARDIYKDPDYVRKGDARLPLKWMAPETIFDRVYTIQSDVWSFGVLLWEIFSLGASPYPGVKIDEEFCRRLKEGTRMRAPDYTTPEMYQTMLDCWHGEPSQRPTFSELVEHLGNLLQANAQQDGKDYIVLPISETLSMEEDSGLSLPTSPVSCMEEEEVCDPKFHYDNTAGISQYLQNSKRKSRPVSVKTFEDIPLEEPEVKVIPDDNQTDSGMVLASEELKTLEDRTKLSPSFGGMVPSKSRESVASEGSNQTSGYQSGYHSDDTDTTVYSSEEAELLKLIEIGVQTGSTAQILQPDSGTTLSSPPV
Sequence of Insulin-like growth factor 1 receptor (P08069 31-736 limits assumed): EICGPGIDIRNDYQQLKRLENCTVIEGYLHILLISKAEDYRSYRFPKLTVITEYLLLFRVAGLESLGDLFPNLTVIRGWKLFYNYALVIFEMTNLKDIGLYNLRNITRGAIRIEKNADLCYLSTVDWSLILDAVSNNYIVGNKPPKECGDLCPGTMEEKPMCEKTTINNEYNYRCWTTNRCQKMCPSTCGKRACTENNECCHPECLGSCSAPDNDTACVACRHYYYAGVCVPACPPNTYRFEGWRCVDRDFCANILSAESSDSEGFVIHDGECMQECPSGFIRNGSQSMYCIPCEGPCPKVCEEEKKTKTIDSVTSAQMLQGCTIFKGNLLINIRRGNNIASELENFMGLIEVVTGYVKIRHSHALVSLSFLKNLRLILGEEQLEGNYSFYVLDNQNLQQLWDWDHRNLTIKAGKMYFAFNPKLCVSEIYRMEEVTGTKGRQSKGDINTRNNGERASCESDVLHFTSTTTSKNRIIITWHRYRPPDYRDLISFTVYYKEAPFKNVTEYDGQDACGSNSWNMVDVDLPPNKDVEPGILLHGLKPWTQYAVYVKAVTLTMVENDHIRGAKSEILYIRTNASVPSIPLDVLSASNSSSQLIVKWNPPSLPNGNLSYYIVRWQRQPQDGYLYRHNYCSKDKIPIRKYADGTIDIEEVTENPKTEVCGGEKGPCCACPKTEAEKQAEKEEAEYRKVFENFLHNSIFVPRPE
Sequence of Insulin-like growth factor 1 receptor (P08069 741-1367 limits assumed): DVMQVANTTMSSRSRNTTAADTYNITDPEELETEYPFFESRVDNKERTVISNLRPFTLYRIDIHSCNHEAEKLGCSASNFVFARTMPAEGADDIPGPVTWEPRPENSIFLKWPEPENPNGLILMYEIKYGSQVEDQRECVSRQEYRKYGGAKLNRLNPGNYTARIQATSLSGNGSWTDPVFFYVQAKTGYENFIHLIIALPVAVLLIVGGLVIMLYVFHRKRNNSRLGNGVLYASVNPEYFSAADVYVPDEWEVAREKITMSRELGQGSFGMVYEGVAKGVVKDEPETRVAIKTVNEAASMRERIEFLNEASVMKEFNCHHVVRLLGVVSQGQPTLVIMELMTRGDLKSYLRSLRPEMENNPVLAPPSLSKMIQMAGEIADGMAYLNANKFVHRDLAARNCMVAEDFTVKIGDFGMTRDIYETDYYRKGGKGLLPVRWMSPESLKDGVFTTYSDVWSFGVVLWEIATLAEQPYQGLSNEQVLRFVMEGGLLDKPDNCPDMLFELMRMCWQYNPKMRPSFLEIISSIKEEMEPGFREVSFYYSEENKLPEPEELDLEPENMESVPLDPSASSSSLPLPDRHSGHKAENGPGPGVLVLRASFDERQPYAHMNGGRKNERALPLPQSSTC

COc1cc2c(Oc3ccc(C4SCC(=O)N4NC(=O)Nc4ccccc4F)cc3)ccnc2cc1OCCCN1CCOCC1 (stereo unspecified)
IC50 (A549): 7 µM

COc1cc2c(Oc3ccc(C4SCC(=O)N4NC(=O)Nc4ccc(Cl)cc4)cc3)ccnc2cc1OCCCN1CCOCC1 (stereo unspecified)
IC50 (HT-29 [1]): 6.6 µM | IC50 (A549): 6.7 µM

COc1cc2c(Oc3ccc(C4SCC(=O)N4NC(=O)Nc4ccc(F)cc4)cc3)ccnc2cc1OCCCN1CCOCC1 (stereo unspecified)
IC50 (HT-29 [1]): 4.8 µM | IC50 (A549): 4.9 µM

COc1cc2c(Oc3ccc(C4SCC(=O)N4NC(=O)Nc4ccc(F)cc4F)c(F)c3)ccnc2cc1OCCCN1CCOCC1 (stereo unspecified)
IC50 (HT-29 [1]): 1.3 µM | IC50 (A549): 4.6 µM

COc1cc2c(Oc3ccc(C4SCC(=O)N4NC(=O)Nc4ccc(F)c(F)c4F)cc3)ccnc2cc1OCCCN1CCOCC1 (stereo unspecified)
IC50 (HT-29 [1]): 4.4 µM | IC50 (A549): 5.5 µM

COc1cc2c(Oc3ccc(C4SCC(=O)N4NC(=O)Nc4ccc(F)cc4F)cc3)ccnc2cc1OCCCN1CCOCC1 (stereo unspecified)
IC50 (HT-29 [1]): 2.3 µM | IC50 (A549): 6 µM

CCN1CCN(CCCOc2cc3nccc(Oc4ccc(C5SCC(=O)N5NC(=O)Nc5ccc(F)cc5F)cc4F)c3cc2OC)CC1 (stereo unspecified)
IC50 (HT-29 [1]): 0.32 µM | IC50 (A549): 1 µM

COc1cc2c(Oc3ccc(C4SCC(=O)N4NC(=O)Nc4ccc(F)cc4F)cc3F)ccnc2cc1OCCCN1CCOCC1 (stereo unspecified)
IC50 (HT-29 [1]): 0.86 µM | IC50 (A549): 2.1 µM

COc1cc2c(Oc3ccc(C4SCC(=O)N4NC(=O)Nc4ccccc4)cc3)ccnc2cc1OCCCN1CCOCC1 (stereo unspecified)
IC50 (HT-29 [1]): 5.2 µM | IC50 (A549): 8.7 µM

COc1cc2c(Oc3ccc(C4SCC(=O)N4NC(=O)Nc4ccc(F)cc4F)cc3F)ccnc2cc1OCCCN1CCCN(C)CC1 (stereo unspecified)
IC50 (HT-29 [1]): 0.18 µM | IC50 (A549): 0.71 µM

COc1cc2c(Oc3ccc(C4SCC(=O)N4NC(=O)Nc4ccccc4Cl)cc3)ccnc2cc1OCCCN1CCOCC1 (stereo unspecified)
IC50 (HT-29 [1]): 6.5 µM | IC50 (A549): 8.5 µM

COc1cc2c(Oc3ccc(C4SCC(=O)N4NC(=O)Nc4ccc(F)cc4F)cc3F)ccnc2cc1OCCCN1CCN(C)CC1 (stereo unspecified)
IC50 (HT-29 [1]): 0.11 µM | Activity (HT-29 [2]): Dose-dependent effect | Activity (HT-29 [3]): Dose-dependent effect | Activity (HT-29 [4]): Active | Activity (HT-29 [5]): 69.4% | Activity (HT-29 [6]): 62% | IC50 [7]: 0.0187 µM | Activity (HT-29 [8]): Active | Activity (HT-29 [9]): Active | IC50 [10]: 0.352 µM | IC50 [11]: 6.66 µM | Activity (HT-29 [12]): 56.6% | Activity (HT-29 [13]): Active | Ratio (HT-29 [14]): >10 | IC50 [15]: 0.383 µM | Activity (HT-29 [16]): Dose-dependent effect | Activity (HT-29 [17]): 65.5% | IC50 [18]: 0.0086 µM | IC50 (A549): 0.65 µM | IC50 [19]: 0.4 µM | Activity (HT-29 [20]): Active | Activity (HT-29 [21]): Dose-dependent effect

COc1cc2c(Oc3ccc(C4SCC(=O)N4NC(=O)Nc4ccc(F)cc4F)cc3Cl)ccnc2cc1OCCCN1CCOCC1 (stereo unspecified)
IC50 (HT-29 [1]): 2.4 µM | IC50 (A549): 6.7 µM

COc1cc2c(Oc3ccc(C4SCC(=O)N4NC(=O)Nc4cc(F)cc(F)c4)cc3)ccnc2cc1OCCCN1CCOCC1 (stereo unspecified)
IC50 (HT-29 [1]): 4.9 µM | IC50 (A549): 6.1 µM

COc1cc2c(Oc3ccc(C4SCC(=O)N4NC(=O)Nc4ccc(F)cc4F)c(Cl)c3)ccnc2cc1OCCCN1CCOCC1 (stereo unspecified)
IC50 (HT-29 [1]): 2.8 µM | IC50 (A549): 6.1 µM

COc1cc2c(Oc3ccc(C4SCC(=O)N4NC(=O)Nc4cccc(Cl)c4)cc3)ccnc2cc1OCCCN1CCOCC1 (stereo unspecified)
IC50 (HT-29 [1]): 7.7 µM | IC50 (A549): 8.9 µM

COc1cc2nccc(Oc3ccc(NC(=O)C4(C(=O)Nc5ccc(F)cc5)CC4)cc3)c2cc1OC [CABOZANTINIB]
Activity (HT-29 [13]): Active | Activity (HT-29 [22]): Active | IC50 (A549): 8.5 µM | Activity (HT-29 [20]): Active | Activity (HT-29 [23]): Active
